Measured values as given in patent publication US20260315606A1, “NOVEL COMPOUNDS CAPABLE OF INDUCING OSTEOGENIC DIFFERENTIATION” (AJOU UNIVERSITY INDUSTRY-ACADEMIC COOPERATION FOUNDATION, priority 2023, published 2026).

How the values were obtained:
p53 = p53 activation in selection of compounds (FIG. 2); type: cell-based, human; details: selected treatment concentrations not given
MDM2 = biological target: T1, MDM2 (Homo sapiens, UniProt Q00987); test: Western blot (SDS-PAGE) of intracellular MDM2 protein degradation in hDPSCs; type: cell-based; details: FIG. 2; selected treatment concentrations not given
T1 construct: degradation by nutlin-based CRBN-recruiting PROTACs, Western blot
T1 sequence (Q00987 whole entry): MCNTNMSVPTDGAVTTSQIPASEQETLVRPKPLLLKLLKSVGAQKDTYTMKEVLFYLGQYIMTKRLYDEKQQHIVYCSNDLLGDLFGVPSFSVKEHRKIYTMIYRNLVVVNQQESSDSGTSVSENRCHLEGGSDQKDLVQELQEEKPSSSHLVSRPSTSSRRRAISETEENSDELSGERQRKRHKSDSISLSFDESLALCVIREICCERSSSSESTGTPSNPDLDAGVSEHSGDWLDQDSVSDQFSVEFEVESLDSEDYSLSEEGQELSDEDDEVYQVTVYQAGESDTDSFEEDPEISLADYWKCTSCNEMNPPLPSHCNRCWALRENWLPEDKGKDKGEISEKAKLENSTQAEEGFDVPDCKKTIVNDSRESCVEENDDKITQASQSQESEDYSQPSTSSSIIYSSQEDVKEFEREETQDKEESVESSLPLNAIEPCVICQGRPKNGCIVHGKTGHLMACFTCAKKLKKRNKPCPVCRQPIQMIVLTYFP
T1 sequence (Q96SW2 whole entry partner): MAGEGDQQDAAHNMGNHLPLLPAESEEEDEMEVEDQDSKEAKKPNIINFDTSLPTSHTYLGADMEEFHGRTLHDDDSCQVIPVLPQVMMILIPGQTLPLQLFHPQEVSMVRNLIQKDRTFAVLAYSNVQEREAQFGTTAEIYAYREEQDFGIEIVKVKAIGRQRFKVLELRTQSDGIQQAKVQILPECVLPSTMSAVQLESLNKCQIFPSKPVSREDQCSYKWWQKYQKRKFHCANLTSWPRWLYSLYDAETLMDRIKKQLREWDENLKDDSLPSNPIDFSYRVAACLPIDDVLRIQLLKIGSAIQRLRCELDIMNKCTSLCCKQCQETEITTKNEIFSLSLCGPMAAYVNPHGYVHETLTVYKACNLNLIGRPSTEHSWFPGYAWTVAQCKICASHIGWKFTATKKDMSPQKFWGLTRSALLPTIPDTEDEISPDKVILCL
Method: Human dental pulp stem cell lines (hDPSCs) were treated with 14 types of synthesized MDM2-PROTACs (10 μM) for 1 hour and Western blot analysis using SDS-PAGE gel was performed to evaluate the intracellular MDM2 protein degradation capacity.

| Substance | p53 activation (selected compounds) (p53) | MDM2 degradation (selected compounds) (MDM2) |
| --- | --- | --- |
| 2-(4-(cis-4,5-bis(4-chlorophenyl)-2-(2-isopropoxy-oxopiperazin-1-yl)-N-(9-(2-(2,6-dioxopiperidin-3-yl)-1,3-dioxoisoindolin-4-yl)non-8-yn-1-yl) acetamide [Compound 16b] | activate p53 | effectively degrade MDM2 |
| 2-(4-(cis-4,5-bis(4-chlorophenyl)-2-(2-isopropoxy-4-methoxyphenyl)-4,5-dihydro-1H-imidazole-1-carbonyl)-2-oxopiperazin-1-yl)-N-(8-((2-(2,6-dioxo-opiperidin-3-yl)-1,3-dioxoisoindolin-4-yl)oxy)octyl)acetamide [Compound 6b] | activate p53 | effectively degrade MDM2 |
